# Measurements reported in US20210403435A1, “HERBICIDAL COMPOUNDS” (SYNGENTA CROP PROTECTION AG, priority 2018, published 2021).
# Assays:
# Assay in all cases: Post-emergence efficacy, glasshouse, evaluated after 13 days
# Type in all cases: in vivo
# [1] = test system: Chenopodium album (CHEAL); conditions: Chenopodium album, 312 h; post-emergence application, 500 g/Ha, evaluated after 13 days; read-out: Control of weed species CHEAL (100=total damage to plant; 0=no damage to plant)
# Procedure, shortened: (§1)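 Damage rated on a 0–100 scale (100 = plant killed) 13 days after spraying. Spray contained compound in IF50 emulsifier, diluted with 0.25% or 1% Empicol ESC70 plus 1% ammonium sulphate, applied to 14-day-old glasshouse plants (24/16° C., 14 h light, 65% humidity).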
# [2] = test system: Euphorbia heterophylla (EPHHL); conditions: Euphorbia heterophylla, 312 h; post-emergence application, 500 g/Ha, evaluated after 13 days; read-out: Control of weed species EPHHL (100=total damage to plant; 0=no damage to plant)
# Procedure, shortened: as §1
# [3] = test system: Echinochloa crus-galli (ECHCG); conditions: Echinochloa crus-galli, 312 h; post-emergence application, 500 g/Ha, evaluated after 13 days; read-out: Control of weed species ECHCG (100=total damage to plant; 0=no damage to plant)
# Procedure, shortened: as §1
# [4] = test system: Digitaria sanguinalis (DIGSA); conditions: Digitaria sanguinalis, 312 h; post-emergence application, 500 g/Ha, evaluated after 13 days; read-out: Control of weed species DIGSA (100=total damage to plant; 0=no damage to plant)
# Procedure, shortened: as §1
# [5] = test system: Amaranthus palmeri (AMAPA); conditions: Amaranthus palmeri, 312 h; post-emergence application, 500 g/Ha, evaluated after 13 days; read-out: Control of weed species AMAPA (100=total damage to plant; 0=no damage to plant)
# Procedure, shortened: as §1
# [6] = test system: Ipomoea hederacea (IPOHE); conditions: Ipomoea hederacea, 312 h; post-emergence application, 500 g/Ha, evaluated after 13 days; read-out: Control of weed species IPOHE (100=total damage to plant; 0=no damage to plant)
# Procedure, shortened: as §1
# [7] = test system: Setaria faberi (SETFA); conditions: Setaria faberi, 312 h; post-emergence application, 500 g/Ha, evaluated after 13 days; read-out: Control of weed species SETFA (100=total damage to plant; 0=no damage to plant)
# Procedure, shortened: as §1
# [8] = test system: Eleusine indica (ELEIN); conditions: Eleusine indica, 312 h; post-emergence application, 500 g/Ha, evaluated after 13 days; read-out: Control of weed species ELEIN (100=total damage to plant; 0=no damage to plant)
# Procedure, shortened: as §1
# [9] = test system: Lolium perenne (LOLPE); conditions: Lolium perenne, 312 h; post-emergence application, 500 g/Ha, evaluated after 13 days; read-out: Control of weed species LOLPE (100=total damage to plant; 0=no damage to plant)
# Procedure, shortened: as §1
SMILES,pest or weed control at 500 g/ha [1] [%],pest or weed control at 500 g/ha [2] [%],pest or weed control at 500 g/ha [3] [%],pest or weed control at 500 g/ha [4] [%],pest or weed control at 500 g/ha [5] [%],pest or weed control at 500 g/ha [6] [%],pest or weed control at 500 g/ha [7] [%],pest or weed control at 500 g/ha [8] [%],pest or weed control at 500 g/ha [9] [%]
C#CCCNC(=O)c1cc[n+](CCC(=O)O)nc1 [Compound A114],90,80,90,100,100,60,100,100,80
O=C(O)CC[n+]1ccc(C(=O)NCc2ccccn2)cn1 [Compound A115],70,70,70,70,100,20,70,100,70
Cn1nccc1NC(=O)c1cc[n+](CCC(=O)O)nc1 [Compound A116],20,50,40,60,40,10,40,40,10
CC[S+]([O-])CCNC(=O)c1cc[n+](CCC(=O)O)nc1 (stereo not drawn) [Compound A117],80,90,60,100,100,40,90,50,50
CCS(=O)(=O)CCNC(=O)c1cc[n+](CCC(=O)O)nc1 [Compound A118],100,90,40,100,100,40,90,50,50
CCSCCNC(=O)c1cc[n+](CCC(=O)O)nc1 [Compound A120],80,90,50,100,100,10,70,50,40
CC(CS(C)(=O)=O)NC(=O)c1cc[n+](CCC(=O)O)nc1 (stereo not drawn) [Compound A122],90,70,90,100,100,60,60,70,60
CC(CO)NC(=O)c1cc[n+](CCC(=O)O)nc1 (stereo not drawn) [Compound A123],90,90,90,100,100,50,100,100,50
O=C(O)CC[n+]1ccc(C(=O)Nc2cnccn2)cn1 [Compound A124],30,30,60,70,20,20,70,30,10
C=CCNC(=O)c1cc[n+](CCCOS(=O)(=O)[O-])nc1 [Compound A125],60,60,70,60,30,50,50,30,60
